Measurements: ChEMBL document CHEMBL1156829 (Proc Natl Acad Sci U S A, 2008)

Key:
[1] = tested on: Plasmodium falciparum; test: NOVARTIS: Inhibition of Plasmodium falciparum W2 (drug-resistant) proliferation in erythrocyte-based infection assay; format: functional, organism-based; details: Plasmodium falciparum, W2; read-out: EC50
[2] = tested on: Plasmodium falciparum; test: NOVARTIS: Inhibition of Plasmodium falciparum 3D7 (drug-susceptible) proliferation in erythrocyte-based infection assay; format: functional, organism-based; details: Plasmodium falciparum, 3D7
[3] = NOVARTIS: Cytotoxicity against human hepatocellular carcinoma cell line (Huh7); format: toxicity, cell-based, Huh-7; details: Huh7 cells (hepatocellular carcinoma cell line)

COc1ccc2nc(-c3ccccc3)cc(O)c2c1
EC50 [1]: 314 nM
EC50 [2]: 411 nM
CC50 [3]: 835 nM

CC[C@H]1CN2CCc3cc(OC)c(OC)cc3[C@@H]2C[C@@H]1C[C@@H]1NCCc2cc(OC)c(OC)cc21
EC50 [1]: 23.1 nM
EC50 [2]: 10.6 nM
CC50 [3]: 82.2 nM

Cc1ccc(NC(C)c2nc3ccccc3c(=O)n2CCOC2CCCCO2)cc1C (stereo not given)
EC50 [1]: 1040 nM
EC50 [2]: 799 nM
CC50 [3]: > 2700 nM

O=C(Nc1ccc(-c2nc3cc(NC(=O)c4ccc(Br)o4)ccc3[nH]2)cc1)c1ccc(Br)o1
EC50 [1]: 709 nM
EC50 [2]: 294 nM
CC50 [3]: 2250 nM

COc1ccc2[nH]c3c(c2c1)CCNC3c1ccc(OC)c(CSc2nnc(-c3ccccc3)o2)c1 (stereo not given)
EC50 [1]: 1990 nM
EC50 [2]: 4050 nM
CC50 [3]: 7420 nM

OCCNCCNCc1ccc2[nH]c3ccccc3c2c1
EC50 [1]: 7600 nM
EC50 [2]: 291 nM
CC50 [3]: 28900 nM

CC(C)(C)c1ccc(C=CC(=O)NCc2ccco2)cc1
EC50 [1]: 322 nM
EC50 [2]: 623 nM
CC50 [3]: 1140 nM

CN(C)CCCNc1cc(-c2ccccc2)nc2ccccc12
EC50 [1]: 5150 nM
EC50 [2]: 123 nM
CC50 [3]: 18600 nM

COc1cc(NC(C)CCCN(Cc2ccc(OC)c(OC)c2)C(=O)NC2CCCCC2)c2ncccc2c1 (stereo not given)
EC50 [1]: 337 nM
EC50 [2]: 676 nM
CC50 [3]: 1300 nM

N#CN=C(N)c1sc(Nc2ccccc2)nc1N
EC50 [1]: 2390 nM
EC50 [2]: 806 nM
CC50 [3]: 9370 nM

CC(C)CN(CC(=O)N1CCC(Nc2nsc3ccccc23)C1)S(C)(=O)=O (stereo not given)
EC50 [1]: 3940 nM
EC50 [2]: 1980 nM
CC50 [3]: 15700 nM

CC[n+]1c(/C=C/C=C2\N(C)c3ccccc3C2(C)C)n(-c2ccccc2)c2cc(Cl)ccc21
EC50 [1]: 530 nM
EC50 [2]: 287 nM
CC50 [3]: 1690 nM

COc1ccccc1/C=C\CN(C(=O)c1ccc(C)cc1)C(c1ccccc1)c1ccccc1
EC50 [1]: > 1350 nM
EC50 [2]: 1120 nM
CC50 [3]: > 4360 nM

CCCCN(C)Cc1ccc2c(NC(=O)c3ccc(C)s3)c(C(=O)OC)sc2n1
EC50 [1]: 461 nM
EC50 [2]: 542 nM
CC50 [3]: 1520 nM

COc1ccc(C(=O)N2C(C(=O)NCCC(C)C)CSC2c2ccc(C(C)(C)C)cc2)cc1 (stereo not given)
EC50 [1]: 1120 nM
EC50 [2]: 797 nM
CC50 [3]: > 4480 nM

NC(=O)c1ccc2c(c1)N=C(/C=C/c1ccccc1)N(C1CC1)C2
EC50 [1]: 5600 nM
EC50 [2]: 74.7 nM
CC50 [3]: 23000 nM

CC(=O)N(/C=C1/Sc2ccccc2C1=O)c1ccc(C)cc1
EC50 [1]: 2410 nM
EC50 [2]: > 1250 nM
CC50 [3]: > 10000 nM

CN(C)CCN1CCN(c2ccnc3cc4ccccc4cc23)CC1
EC50 [1]: 369 nM
EC50 [2]: 108 nM
CC50 [3]: 1550 nM

CCOc1ccc(NC(=O)c2ccc(C)o2)cc1
EC50 [1]: 4430 nM
EC50 [2]: 3710 nM
CC50 [3]: 13000 nM

c1ccc2c(c1)CSc1sccc1C2=C1CCNCC1
EC50 [1]: 4410 nM
EC50 [2]: 88 nM
CC50 [3]: 13000 nM

Cc1cc(Nc2cccc(Cl)c2)nc2ccc(NC(=O)c3cccnc3)cc12
EC50 [1]: 1310 nM
EC50 [2]: 721 nM
CC50 [3]: 4190 nM

CCN1C(=O)c2ccccc2Sc2ccc(NC(=O)NCCCOC(C)C)cc21
EC50 [1]: > 10000 nM
EC50 [2]: > 10000 nM
CC50 [3]: 32100 nM

CN1CCN(c2ccc(NC(=O)Oc3ccccc3)cc2)CC1
EC50 [1]: 7480 nM
EC50 [2]: 4170 nM
CC50 [3]: 25400 nM

CCC(c1nc2ccccc2c(=O)n1-c1cccc(Cl)c1)N(CCC(C)C)C(=O)COCc1ccccc1 (stereo not given)
EC50 [1]: > 1140 nM
EC50 [2]: 1190 nM
CC50 [3]: 3910 nM

CCOc1cc(Br)cc(C=NNC(=O)COc2cccc(C)c2)c1O
EC50 [1]: > 12500 nM
EC50 [2]: 7520 nM
CC50 [3]: > 46200 nM

O=S(=O)(/C=C/c1ccccc1)NCCCCNc1ccnc2cc(Cl)ccc12
EC50 [1]: 397 nM
EC50 [2]: 405 nM
CC50 [3]: 1480 nM

CCC(C)(C)C1CCc2c(sc(NC(=O)c3ccc(F)cc3)c2C(N)=O)C1 (stereo not given)
EC50 [1]: 2340 nM
EC50 [2]: > 1250 nM
CC50 [3]: > 10000 nM

CCN(C(=O)Cn1c(=O)oc2ccccc21)c1ccc(F)cc1
EC50 [1]: 2310 nM
EC50 [2]: > 1530 nM
CC50 [3]: > 10000 nM

CC1CC(C)CC(C)C(O)C(C#N)=CC=CCC(C2CCCC2C(=O)O)OC(=O)CC(O)C(C)C1 (stereo not given)
EC50 [1]: > 1250 nM
EC50 [2]: 43.7 nM
CC50 [3]: 2850 nM

Cc1ccc(O)c(C(=O)c2c[nH]c(-c3nc4ccccc4[nH]3)c2)c1
EC50 [1]: 2470 nM
EC50 [2]: 2880 nM
CC50 [3]: 5650 nM

Cc1ccc2nc(C)cc(NCCCN(C)C)c2c1
EC50 [1]: 824 nM
EC50 [2]: 410 nM
CC50 [3]: > 3620 nM

COc1ccc(C2C(C(=O)Nc3ccc(OC)c(OC)c3)CCC(=O)N2c2ccc(OC)cc2)cc1 (stereo not given)
EC50 [1]: 2270 nM
EC50 [2]: > 1360 nM
CC50 [3]: > 10000 nM

COc1ccccc1C1SCCN1C(=O)Nc1ccc(Cl)c(Cl)c1 (stereo not given)
EC50 [1]: 2260 nM
EC50 [2]: > 1020 nM
CC50 [3]: > 10000 nM

COC(=O)c1sc2nc(CN(C)Cc3nccs3)ccc2c1NC(=O)c1ccc(C)s1
EC50 [1]: 1150 nM
EC50 [2]: > 1330 nM
CC50 [3]: > 2840 nM

COc1ccc(C(=O)N2C(C(=O)Nc3ccc(C)cc3)CSC2c2ccc(C(C)(C)C)cc2)cc1 (stereo not given)
EC50 [1]: 1170 nM
EC50 [2]: 1040 nM
CC50 [3]: > 2970 nM

C[n+]1c(C=Cc2ccc(Cl)c(Cl)c2)ccc2ccccc21
EC50 [1]: 1760 nM
EC50 [2]: 524 nM
CC50 [3]: 5370 nM

COc1cc(C(=O)Nc2c3c(nn2-c2cc(C)cc(C)c2)CSC3)cc(OC)c1OC
EC50 [1]: 341 nM
EC50 [2]: 907 nM
CC50 [3]: > 1070 nM

O=C(CCC1CCCC1)NC1CCC(Nc2ccnc3cc(Cl)ccc23)CC1 (stereo not given)
EC50 [1]: 875 nM
EC50 [2]: 1010 nM
CC50 [3]: > 3890 nM

COc1ccc(N2CCN(c3ncnc4sc(C(=O)NCc5cccnc5)c(C)c34)CC2)cc1
EC50 [1]: > 8110 nM
EC50 [2]: > 11200 nM
CC50 [3]: 20700 nM

NC(=O)C1CCCN(C(=O)COC(c2ccccc2)c2cccnc2Cl)C1 (stereo not given)
EC50 [1]: > 12500 nM
EC50 [2]: 4810 nM
CC50 [3]: 45600 nM

COc1cc(-c2nc3ccc(N4CCN(C)CC4)cc3[nH]2)cc(OC)c1OC
EC50 [1]: 5570 nM
EC50 [2]: 733 nM
CC50 [3]: 21200 nM

CC(=O)Nn1c(C(C)(C)C)nc2ccccc2c1=O
EC50 [1]: 2470 nM
EC50 [2]: > 1470 nM
CC50 [3]: > 10000 nM

Cc1ccc(C)c2[nH]c(=O)c(CN(Cc3ccccc3)C(=S)NCCCN(C)C)cc12
EC50 [1]: > 4670 nM
EC50 [2]: 5220 nM
CC50 [3]: 19500 nM

CCn1nc(/C=C/c2ccccc2)nc2c(=O)n(C)c(=O)nc1-2
EC50 [1]: > 10000 nM
EC50 [2]: > 3330 nM
CC50 [3]: 42000 nM

Nc1nnc(CCSc2ccc(Cl)cc2)s1
EC50 [1]: > 1250 nM
EC50 [2]: 175 nM
CC50 [3]: > 3710 nM

COc1cccc2c1OCC(C(=O)Nc1ccc(C)cc1)=C2
EC50 [1]: > 12500 nM
EC50 [2]: 461 nM
CC50 [3]: 54700 nM

CCOc1ccc2c(c1)c1nnc(-c3ccc4c(c3)OCO4)c-1cn2Cc1ccc(Cl)cc1
EC50 [1]: 4980 nM
EC50 [2]: 8390 nM
CC50 [3]: 14600 nM

Cn1ccnc1C(=O)NNc1ncc(C(F)(F)F)cc1Cl
EC50 [1]: 359 nM
EC50 [2]: 609 nM
CC50 [3]: 1150 nM

O=C1NC(=S)N/C1=C/c1ccc(C(F)(F)F)cc1
EC50 [1]: > 1110 nM
EC50 [2]: > 1030 nM
CC50 [3]: > 2880 nM

CC1=C(CC(=O)c2cccc([N+](=O)[O-])c2)C(=O)c2ccccc2C1=O
EC50 [1]: 1720 nM
EC50 [2]: 2840 nM
CC50 [3]: 4690 nM

O=C(Nc1cccc(C(F)(F)F)c1)c1ccc(-c2cccs2)cc1
EC50 [1]: 1940 nM
EC50 [2]: 10000 nM
CC50 [3]: 7130 nM

c1ccc(-c2ccc(-c3ccccn3)nc2)nc1
EC50 [1]: 141 nM
EC50 [2]: 287 nM
CC50 [3]: 360 nM

Clc1cccc(CNC2CCN(CCc3ccccc3)CC2)c1
EC50 [1]: 801 nM
EC50 [2]: 298 nM
CC50 [3]: 3040 nM

O=[N+]([O-])c1cc(C(F)(F)F)cc([N+](=O)[O-])c1Sc1cccc2cccnc12
EC50 [1]: 1120 nM
EC50 [2]: 4340 nM
CC50 [3]: 4340 nM

CC(C)(C)C1=NN(CC(=O)Nc2ccc3c(c2)OCO3)C(=O)c2cc3ccccc3n2C1
EC50 [1]: 3160 nM
EC50 [2]: > 12500 nM
CC50 [3]: 9810 nM
